Test results from PubChem BioAssay (NCI).
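Test compounds were applied to cells in 96-well plates for 48 hours at 5 doses. The concentration for 50% growth inhibition is given as GI50. The concentration for full growth arrest is given as TGI.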

Legend:
Assay in all cases: inhibition of tumour cell growth, NCI panel, 48 h
SK-MEL-28 melanoma = system: SK-MEL-28 melanoma
SN12C renal = system: SN12C renal
SF-295 CNS = system: SF-295 CNS
SW-620 colon = system: SW-620 colon
HT29 colon = system: HT29 colon
HOP-62 NSCLC = system: HOP-62 NSCLC
NCI/ADR-RES ovarian = system: NCI/ADR-RES ovarian
SR leukemia = system: SR leukemia
HCT-116 colon = system: HCT-116 colon
OVCAR-3 ovarian = system: OVCAR-3 ovarian
A549 NSCLC = system: A549 NSCLC
CCRF-CEM leukemia = system: CCRF-CEM leukemia
EKVX NSCLC = system: EKVX NSCLC
SNB-19 CNS = system: SNB-19 CNS
SF-268 CNS = system: SF-268 CNS
PC-3 prostate = system: PC-3 prostate
UACC-257 melanoma = system: UACC-257 melanoma
SK-OV-3 ovarian = system: SK-OV-3 ovarian
DU-145 prostate = system: DU-145 prostate
UO-31 renal = system: UO-31 renal
NCI-H522 lung = system: NCI-H522 lung
CAKI-1 renal = system: CAKI-1 renal
NCI-H226 lung = system: NCI-H226 lung
LOX IMVI melanoma = system: LOX IMVI melanoma
U251 CNS = system: U251 CNS
OVCAR-4 ovarian = system: OVCAR-4 ovarian
HOP-92 NSCLC = system: HOP-92 NSCLC
ACHN renal = system: ACHN renal
T-47D breast = system: T-47D breast
SK-MEL-2 melanoma = system: SK-MEL-2 melanoma
SNB-75 CNS = system: SNB-75 CNS
SF-539 CNS = system: SF-539 CNS
RXF 393 renal = system: RXF 393 renal
MOLT-4 leukemia = system: MOLT-4 leukemia
TK-10 renal = system: TK-10 renal
A498 renal = system: A498 renal
UACC-62 melanoma = system: UACC-62 melanoma
RPMI-8226 leukemia = system: RPMI-8226 leukemia
NCI-H23 lung = system: NCI-H23 lung
786-0 renal = system: 786-0 renal
IGROV1 ovarian = system: IGROV1 ovarian
COLO 205 colon = system: COLO 205 colon
HL-60(TB) leukemia = system: HL-60(TB) leukemia
HCC-2998 colon = system: HCC-2998 colon
MALME-3M melanoma = system: MALME-3M melanoma
MCF7 breast = system: MCF7 breast
HS 578T breast = system: HS 578T breast
SK-MEL-5 melanoma = system: SK-MEL-5 melanoma
KM12 colon = system: KM12 colon
HCT-15 colon = system: HCT-15 colon
M14 melanoma = system: M14 melanoma
OVCAR-8 ovarian = system: OVCAR-8 ovarian
OVCAR-5 ovarian = system: OVCAR-5 ovarian
MDA-MB-435 = system: MDA-MB-435
NCI-H460 lung = system: NCI-H460 lung
MDA-MB-231 breast = system: MDA-MB-231 breast
BT-549 breast = system: BT-549 breast
K-562 leukemia = system: K-562 leukemia

Question: Which results are given for `CCSC1=CC(=O)c2ccccc2C1=O`?
Answer: GI50 (SK-MEL-28 melanoma): 14.4 µM; TGI (SK-MEL-28 melanoma): 28.9 µM; GI50 (SN12C renal): 14.5 µM; TGI (SN12C renal): 28.6 µM; GI50 (SF-295 CNS): 15.3 µM; TGI (SF-295 CNS): 30.7 µM; GI50 (SW-620 colon): 1.56 µM; TGI (SW-620 colon): 3.42 µM; GI50 (HT29 colon): 15.5 µM; TGI (HT29 colon): 34.7 µM; GI50 (HOP-62 NSCLC): 15.3 µM; TGI (HOP-62 NSCLC): 28.7 µM; GI50 (NCI/ADR-RES ovarian): 2.37 µM; TGI (NCI/ADR-RES ovarian): 7.39 µM; GI50 (SR leukemia): 2.57 µM; TGI (SR leukemia): 6.8 µM; GI50 (HCT-116 colon): 1.48 µM; TGI (HCT-116 colon): 2.84 µM; GI50 (OVCAR-3 ovarian): 1.46 µM; TGI (OVCAR-3 ovarian): 2.81 µM; GI50 (A549 NSCLC): 19.9 µM; TGI (A549 NSCLC): 41.3 µM; GI50 (CCRF-CEM leukemia): 0.374 µM; GI50 (EKVX NSCLC): 7.82 µM; TGI (EKVX NSCLC): 23.2 µM; GI50 (SNB-19 CNS): 16.8 µM; TGI (SNB-19 CNS): 40.6 µM; GI50 (SF-268 CNS): 4.98 µM; TGI (SF-268 CNS): 17.1 µM; GI50 (PC-3 prostate): 5.84 µM; TGI (PC-3 prostate): 18.5 µM; GI50 (UACC-257 melanoma): 1.6 µM; TGI (UACC-257 melanoma): 3.89 µM; GI50 (SK-OV-3 ovarian): 18.1 µM; TGI (SK-OV-3 ovarian): 32 µM; GI50 (DU-145 prostate): 14.4 µM; TGI (DU-145 prostate): 27.8 µM; GI50 (UO-31 renal): 1.28 µM; TGI (UO-31 renal): 4.06 µM; GI50 (NCI-H522 lung): 0.821 µM; TGI (NCI-H522 lung): 2.39 µM; GI50 (CAKI-1 renal): 1.96 µM; TGI (CAKI-1 renal): 5.5 µM; GI50 (NCI-H226 lung): 16.8 µM; TGI (NCI-H226 lung): 32.9 µM; GI50 (LOX IMVI melanoma): 2.55 µM; TGI (LOX IMVI melanoma): 8.89 µM; GI50 (U251 CNS): 5.81 µM; TGI (U251 CNS): 16.5 µM; GI50 (OVCAR-4 ovarian): 0.959 µM; TGI (OVCAR-4 ovarian): 2.37 µM; GI50 (HOP-92 NSCLC): 1.32 µM; TGI (HOP-92 NSCLC): 2.66 µM; GI50 (ACHN renal): 1.27 µM; TGI (ACHN renal): 2.65 µM; GI50 (T-47D breast): 0.318 µM; TGI (T-47D breast): 0.959 µM; GI50 (SK-MEL-2 melanoma): 6.48 µM; TGI (SK-MEL-2 melanoma): 15.9 µM; GI50 (SNB-75 CNS): 14.8 µM; TGI (SNB-75 CNS): 29.7 µM; GI50 (SF-539 CNS): 12.7 µM; TGI (SF-539 CNS): 28.2 µM; GI50 (RXF 393 renal): 2.09 µM; TGI (RXF 393 renal): 4.54 µM; GI50 (MOLT-4 leukemia): 0.744 µM; TGI (MOLT-4 leukemia): 2.39 µM; GI50 (TK-10 renal): 2.5 µM; TGI (TK-10 renal): 4.65 µM; GI50 (A498 renal): 16.4 µM; TGI (A498 renal): 41.2 µM; GI50 (UACC-62 melanoma): 4.79 µM; TGI (UACC-62 melanoma): 17.2 µM; GI50 (RPMI-8226 leukemia): 1.49 µM; TGI (RPMI-8226 leukemia): 5.65 µM; GI50 (NCI-H23 lung): 9.05 µM; TGI (NCI-H23 lung): 26.6 µM; GI50 (786-0 renal): 9.25 µM; TGI (786-0 renal): 22.3 µM; GI50 (IGROV1 ovarian): 4.86 µM; TGI (IGROV1 ovarian): 17.1 µM; GI50 (COLO 205 colon): 2.33 µM; TGI (COLO 205 colon): 5.22 µM; GI50 (HL-60(TB) leukemia): 0.389 µM; TGI (HL-60(TB) leukemia): 1.8 µM; GI50 (HCC-2998 colon): 17 µM; TGI (HCC-2998 colon): 31.8 µM; GI50 (MALME-3M melanoma): 1.99 µM; TGI (MALME-3M melanoma): 5.34 µM; GI50 (MCF7 breast): 4.12 µM; TGI (MCF7 breast): 15.1 µM; GI50 (HS 578T breast): 13.8 µM; TGI (HS 578T breast): > 69.3 µM; GI50 (SK-MEL-5 melanoma): 7.11 µM; TGI (SK-MEL-5 melanoma): 20.3 µM; GI50 (KM12 colon): 11 µM; TGI (KM12 colon): 25.4 µM; GI50 (HCT-15 colon): 13.9 µM; TGI (HCT-15 colon): 31.4 µM; GI50 (M14 melanoma): 12.8 µM; TGI (M14 melanoma): 26 µM; GI50 (OVCAR-8 ovarian): 1.75 µM; TGI (OVCAR-8 ovarian): 3.8 µM; GI50 (OVCAR-5 ovarian): 16.9 µM; TGI (OVCAR-5 ovarian): 32.5 µM; GI50 (MDA-MB-435): 2.69 µM; TGI (MDA-MB-435): 7.02 µM; GI50 (NCI-H460 lung): 20.5 µM; TGI (NCI-H460 lung): 46.8 µM; GI50 (MDA-MB-231 breast): 0.759 µM; TGI (MDA-MB-231 breast): 3.3 µM; GI50 (BT-549 breast): 14.8 µM; TGI (BT-549 breast): 28.3 µM; GI50 (K-562 leukemia): 1.61 µM; TGI (K-562 leukemia): 4.52 µM
